Measurements from PMC8818328 (European journal of medicinal chemistry, 2021).

Legend:
[1] = tested on: HCT116, HT-29, K562, KG-1, A-498 and Caki-1 cell lines; experiment: MTT assay, all six tested cell lines; assay type: cell-based; details: 10 μM, range over six cell lines
[2] = tested on: renal cancer cell lines A-498 and Caki-1; experiment: MTT assay, renal cancer cell lines; assay type: cell-based; details: for GI% renal cancer cell lines A-498 and Caki-1: 10 μM, range over both cell lines; for IC50: read-out: IC50 against the tested renal cancer cell lines
STAT3 in A-498 cells = experiment: Western blot of STAT3 activation; assay type: cell-based
[3] = tested on: HDAC2 and FAK in A-498 cells; experiment: Western blot of HDAC2 expression and FAK phosphorylation, A-498 cells; assay type: cell-based; details: 24 h at IC50, Western blot
caspase-9 = experiment: Caspase-9 ELISA in A-498 cells; assay type: cell-based, human; details: 24 h, control 4.53
A-498 cells [4] = experiment: Cell cycle analysis by flow cytometry, A-498; assay type: cell-based; details: 24 h
[5] = tested on: HDAC2, p-FAK, p-Akt in A-498 cells; experiment: Resistance development assay, Western blot of HDAC2, p-FAK, FAK, p-Akt, Akt
caspase-3 = experiment: Active caspase-3 ELISA in A-498 cells; assay type: cell-based, human; details: control 45.57
Caki-1 cells = experiment: Cell cycle analysis by flow cytometry, Caki-1; assay type: cell-based; details: 24 h
caspase-8 = experiment: Caspase-8 ELISA in A-498 cells; assay type: cell-based, human; details: 24 h, control 0.274
[6] = tested on: HDAC2 and FAK in Caki-1 cells; experiment: Western blot of HDAC2 expression and FAK phosphorylation, Caki-1 cells; assay type: cell-based; details: 24 h at IC50, Western blot
HDAC1 = HDAC1 (Homo sapiens, UniProt Q13547); experiment: Fluorogenic enzymatic assay HDAC1; assay type: biochemical
K562 = experiment: MTT proliferation assay, K562; assay type: cell-based; details: Homo sapiens, K562, 24 h, read-out: Growth inhibition (%) K562
HCT116 = experiment: MTT proliferation assay, HCT116; assay type: cell-based; details: Homo sapiens, HCT-116, 24 h, read-out: Growth inhibition (%) HCT116
A-498 cells [7] = experiment: Resistance development assay; details: Homo sapiens, A498, read-out: IC50 on pretreated A-498 cells
[8] = A-498 cells, both pretreated (12 weeks) and not pretreated
[9] = A-498 cells pretreated 12 weeks

Chain of HDAC1 (Q13547 whole entry): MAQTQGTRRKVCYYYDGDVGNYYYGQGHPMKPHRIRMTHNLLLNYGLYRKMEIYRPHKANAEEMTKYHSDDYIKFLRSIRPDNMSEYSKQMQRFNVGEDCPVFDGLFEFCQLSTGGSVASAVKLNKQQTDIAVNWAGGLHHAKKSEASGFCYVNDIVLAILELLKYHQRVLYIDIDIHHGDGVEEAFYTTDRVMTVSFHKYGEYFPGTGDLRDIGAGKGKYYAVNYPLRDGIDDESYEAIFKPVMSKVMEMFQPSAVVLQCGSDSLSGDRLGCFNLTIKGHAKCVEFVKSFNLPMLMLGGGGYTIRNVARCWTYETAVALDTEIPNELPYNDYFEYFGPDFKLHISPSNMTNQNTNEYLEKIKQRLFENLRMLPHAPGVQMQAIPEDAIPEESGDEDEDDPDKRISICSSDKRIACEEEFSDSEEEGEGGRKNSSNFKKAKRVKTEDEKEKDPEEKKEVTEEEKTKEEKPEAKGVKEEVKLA

In the case of `O=C(O)CCCCCSc1nnc(-c2ccncc2)n1-c1ccccc1` [Compound 5d, 6-((4-phenyl-5-(pyridin-4-yl)-4H-1,2,4-triazol-3-yl)thio)hexanoic acid], the “GI% against all the tested cells” value [1] is reported as 40.12–99.81%, the “GI% renal cancer cell lines A-498 and Caki-1” value [2] is reported as 89.34–99.81% and the IC50 [2] is reported as 0.95 to 2.35 µM.
`Cn1c(SCCCCCC(=O)NO)nnc1-c1ccncc1` [Compound 6a, N-hydroxy-6-((4-methyl-5-(pyridin-4-yl)-4H-1,2,4-triazol-3-yl)thio)hexanamide] was tested, and the STAT3 activation (STAT3 in A-498 cells) was “inhibit”, the FAK phosphorylation [3] was “decreased” and the “expression level of HDAC2” value [3] was “decreased”. For the same compound, the “Caspase-9 Concentration” value (caspase-9) was 28.47 ng/mL, the “percentage of cells in G1 phase” value (A-498 cells [4]; 1.5 μM) was “decreased” and the “percentage of cells in S phase” value (A-498 cells [4]; 1.5 μM) was “minor changes”. For the same compound, the “percentage of cells in G2/M phase” value (A-498 cells [4]; control 18%) was 65%, the Akt phosphorylation [5, 8] was “substantial ability to inhibit” and the FAK phosphorylation [5, 8] was “steady ability to inhibit”. The HDAC2 expression [5, 8] was “steady ability to inhibit”, the Caspase-3 concentration (caspase-3) was 515.40 pg/mL and the “percentage of cells in G1 phase” value (Caki-1 cells; 1.5 μM) was “decreased”. The “percentage of cells in S phase” value (Caki-1 cells; 1.5 μM) was “minor changes”, the “percentage of cells in G2/M phase” value (Caki-1 cells; control 5.5%) was 35% and the “Caspase-8 Concentration” value (caspase-8) was 0.888 ng/mL. The FAK phosphorylation [6] was “decreased”, the “expression level of HDAC2” value [6] was “decreased” and the “GI% against all the tested cells” value [1] was 40.12–99.81%. The “GI% renal cancer cell lines A-498 and Caki-1” value [2] was 89.34–99.81%, the IC50 [2] was 0.95 to 2.35 µM and the IC50 (HDAC1) was 12.3 ± 1.64 µM.
`Cn1c(SCCCCCC(=O)Nc2ccccc2N)nnc1-c1ccncc1` [Compound 7a, N-(2-aminophenyl)-6-((4-methyl-5-(pyridin-4-yl)-4H-1,2,4-triazol-3-yl)thio)hexanamide] was tested, and the IC50 [2] was 6.19 to 20.9 µM.
In the case of `C=CCn1c(SCCCCCC(=O)Nc2ccccc2N)nnc1-c1ccncc1` [Compound 7c, 6-((4-allyl-5-(pyridin-4-yl)-4H-1,2,4-triazol-3-yl)thio)-N-(2-aminophenyl)hexanamide], the FAK phosphorylation [3] is reported as “entirely blocked”, the FAK phosphorylation [6] is reported as “entirely blocked” and the “GI% against all the tested cells” value [1] is reported as 40.12–99.81%. For the same compound, the “GI% renal cancer cell lines A-498 and Caki-1” value [2] was 89.34–99.81% and the IC50 [2] was 0.95 to 2.35 µM.
`Nc1ccccc1NC(=O)CCCCCSc1nnc(-c2ccncc2)n1-c1ccccc1` [Compound 7d, N-(2-aminophenyl)-6-((4-phenyl-5-(pyridin-4-yl)-4H-1,2,4-triazol-3-yl)thio)hexanamide] gave an inhibition at 10 µM (K562) of 15.1%.
`Cn1c(SCc2ccc(C(=O)NO)cc2)nnc1-c1ccncc1` [Compound 10a, N-hydroxy-4-(((4-methyl-5-(pyridin-4-yl)-4H-1,2,4-triazol-3-yl)thio)methyl)benzamide] showed an inhibition at 10 µM (HCT116) of 32.4% and an IC50 [2] of 6.19 to 20.9 µM.
`C=CCn1c(SCc2ccc(C(=O)NO)cc2)nnc1-c1ccncc1` [Compound 10c, 4-(((4-allyl-5-(pyridin-4-yl)-4H-1,2,4-triazol-3-yl)thio)methyl)-N-hydroxybenzamide] gave an IC50 [2] of 6.19 to 20.9 µM.
For `O=C(NO)c1ccc(CSc2nnc(-c3ccncc3)n2-c2ccccc2)cc1` [Compound 10d, N-hydroxy-4-(((4-phenyl-5-(pyridin-4-yl)-4H-1,2,4-triazol-3-yl)thio)methyl)benzamide], the IC50 [2] was 6.19 to 20.9 µM.
In the case of `Cn1c(SCc2ccc(C(=O)Nc3ccccc3N)cc2)nnc1-c1ccncc1` [Compound 11a, N-(2-aminophenyl)-4-(((4-methyl-5-(pyridin-4-yl)-4H-1,2,4-triazol-3-yl)thio)methyl)benzamide], the IC50 [2] is reported as 6.19 to 20.9 µM.
With `C=CCn1c(SCc2ccc(C(=O)Nc3ccccc3N)cc2)nnc1-c1ccncc1` [Compound 11c, 4-(((4-allyl-5-(pyridin-4-yl)-4H-1,2,4-triazol-3-yl)thio)methyl)-N-(2-aminophenyl)benzamide] the “GI% against all the tested cells” value [1] was 40.12–99.81%, the “GI% renal cancer cell lines A-498 and Caki-1” value [2] was 89.34–99.81% and the IC50 [2] was 0.95 to 2.35 µM.
For `Nc1ccccc1NC(=O)c1ccc(CSc2nnc(-c3ccncc3)n2-c2ccccc2)cc1` [Compound 11d, N-(2-aminophenyl)-4-(((4-phenyl-5-(pyridin-4-yl)-4H-1,2,4-triazol-3-yl)thio)methyl)benzamide], the inhibition at 10 µM (HCT116) was 45.4% and the IC50 [2] was 6.19 to 20.9 µM.
With `CCCC(CCC)C(=O)O` [VPA, valproic acid, reference compound] the IC50 (A-498 cells [7]) was 3090 µM, the Akt phosphorylation [5, 9] was “drastic overexpression” and the HDAC2 expression [5, 9] was “lower ability to inhibit”.
